Test systems include HOP-62 NSCLC; HOP-92 NSCLC; IGROV1 ovarian; LOX IMVI melanoma; OVCAR-8 ovarian; SK-MEL-5 melanoma; SN12C renal; SNB-75 CNS; U251 CNS; UACC-62 melanoma.
Common to all, as to assay: NCI anticancer screen, dose series, 48 h

Each structure is given as a SMILES string.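 Step 1: Grow cells in 96-well plates. Step 2: Expose to compound for 48 hours at 5 concentrations. Step 3: Interpolate endpoints linearly; if unreached, use highest concentration. Here, GI50 denotes the concentration required for 50% inhibition of growth. TGI is the concentration that stops growth completely.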 A value given as a limit tells only on which side of the number the result lay.

Regarding `O=C(c1cc(=O)c2ccc(O)cc2o1)c1ccc(Cl)cc1Cl`, the TGI in the experiment on HOP-62 NSCLC was greater than 100 µM; in the experiment with HOP-92 NSCLC it was greater than 73.4 µM; in the experiment on IGROV1 ovarian it was greater than 100 µM; with LOX IMVI melanoma it was greater than 59.1 µM; with OVCAR-8 ovarian it was greater than 100 µM; in the experiment with SK-MEL-5 melanoma, greater than 74.6 µM. Further, the TGI in the experiment on SN12C renal was 72.1 µM; in the experiment with SNB-75 CNS it was greater than 100 µM; with U251 CNS it was greater than 100 µM; with UACC-62 melanoma, greater than 100 µM.

As to `CCCCCCCCCCCCCCCCOC(=O)C(C(=O)OCCCCCCCCCCCCCCCC)[N+](C)(C)CCOC(C)=O`, the TGI was determined as 25.8 µM with HOP-62 NSCLC; 18.5 µM with HOP-92 NSCLC; 13.7 µM in the experiment on IGROV1 ovarian; 44.8 µM in the experiment with LOX IMVI melanoma; 37.3 µM with OVCAR-8 ovarian; 35.1 µM in the experiment on SK-MEL-5 melanoma. The TGI in the experiment on SN12C renal was 35.3 µM; with SNB-75 CNS, 35.6 µM; with U251 CNS, 27 µM; in the experiment with UACC-62 melanoma, 45.7 µM.

With `CC(=O)NNc1nc(C)c(C(=O)NNC(=O)C(=O)Nc2ccc(C)c(C)c2)s1`, the TGI in the experiment on HOP-62 NSCLC, in the experiment on HOP-92 NSCLC, with IGROV1 ovarian, in the experiment with LOX IMVI melanoma, in the experiment on OVCAR-8 ovarian and in the experiment on SK-MEL-5 melanoma was greater than 100 µM throughout. In addition, the TGI in the experiment on SN12C renal, with SNB-75 CNS, with U251 CNS and with UACC-62 melanoma was greater than 100 µM throughout.

`CCN1CCN(CCOc2ccc(CNc3ccc4nc(CCC5CCCCC5)[nH]c4c3)cc2)CC1`: the GI50 with HOP-62 NSCLC is 1.99 µM; with HOP-92 NSCLC, 0.925 µM; in the experiment with IGROV1 ovarian, 2.83 µM; with LOX IMVI melanoma, 1.71 µM; in the experiment on OVCAR-8 ovarian, 2.45 µM; in the experiment on SK-MEL-5 melanoma, 1.73 µM. Moreover, the GI50 is 2.72 µM in the experiment with SN12C renal, 1.66 µM in the experiment on SNB-75 CNS, 1.49 µM in the experiment with U251 CNS and 1.93 µM with UACC-62 melanoma. Also, the TGI came out at 4.63 µM in the experiment with HOP-62 NSCLC; 3.09 µM in the experiment with HOP-92 NSCLC; 11 µM with IGROV1 ovarian; 3.15 µM in the experiment on LOX IMVI melanoma; 7.04 µM with OVCAR-8 ovarian; 3.17 µM in the experiment with SK-MEL-5 melanoma. Moreover, the TGI with SN12C renal turned out to be 11 µM; in the experiment on SNB-75 CNS, 4.07 µM; with U251 CNS, 3.16 µM; with UACC-62 melanoma, 3.52 µM.
